Laboratory results reported in patent US6156790A, “C-10 carbon-substituted artemisinin-like trioxane compounds having antimalarial, antiproliferative and antitumor activities” (priority 1997, dated 2000).

Columns and labels:
60 cell line panel = details: cell line panels of 60 lines; cited from earlier work
P. berghei = details: P. berghei-infected mice; cited from earlier work
P. falciparum = details: Camp (chloroquine-susceptible) and Smith (chloroquine-resistant) strains; cited from earlier work
P388 leukemia = details: NCI Report on NSC 369397; cited from earlier work
NCI-H322M = test: cells; assay type: cell-based; details: Homo sapiens, read-out: Log10 TGI
SK-MEL-5 = test: NCI 60 cell line screen (SRB), melanoma; assay type: cell-based; details: Homo sapiens
SK-OV-3 = test: NCI 60 cell line screen (SRB), ovarian cancer; assay type: cell-based; details: Homo sapiens
OVCAR-4 = test: NCI 60 cell line screen (SRB), ovarian cancer; assay type: cell-based; details: Homo sapiens, read-out: Log10 GI50 (converted)
DU-145 = test: cells; assay type: cell-based; details: Homo sapiens
[1] = system: murine keratinocyte cell line PE; test: growth inhibition of PE cells (MTT assay); assay type: cell-based; details: 100 nanomolar
Method: To determine the inhibitory effect of the compositions of the present invention on cell proliferation, screening assays were performed on a murine keratinocyte cell line PE. Cell line PE was chosen for its particular sensitivity to the induction of ornithine decarboxylase (ODC) activity by the extensively characterized tumor promoter TPA. […] PE cell culture medium consisted of Eagle's minimal essential medium without calcium chloride (Whittaker Bioproducts, Walkersville, Mass.) supplemented with 8% chelexed fetal calf serum and 1% antibiotic-antimycotic (Gibco BRL) and the addition of CaCl2 to 0.05 mM Ca^++.
Growth Inhibition. Growth curves, shown in FIGS. 1 and 2, for PE cells treated with calcitriol and the C-10 carbon-substituted dimers 21, 22, 26, 27, and 28 generated by assay for the reduction of the tetrazolium-based compound MTT, see Charmichael, et al., Cancer Res., 47:936-942 (1987). […] PE cells were seeded at a density of 5,000 cells/well in 50 μL of medium into 96-well microtiter plates. Twelve hours later, the medium was removed, and cells were treated with 100 μL of fresh medium into which the appropriate amount of calcitrol or analog dissolved in dimethyl sulfoxide (DMSO) had been added, with the concentration of DMSO held constant at 0.1%. […] At 24-hour intervals following the initial treatment of the cells with compounds, 0.1 mg (50 μL of a 2 mg/mL solution) of MTT was added to each well. After 4 hours, the MTT was removed and DMSO added to dissolve the blue formazan dye. Using a microtiter plate reader, the A505 was then determined and cell number calculated from blank-subtracted absorbance values.

[2] = read-out: Log10 LC50 (converted)
[3] = read-out: Log10 TGI (converted)
[4] = read-out: Log10 GI50 (converted)

C[C@@H]1CC[C@H]2[C@@H](C)C(=O)O[C@@H]3O[C@@]4(C)CC[C@@H]1[C@]32OO4 [Artemisinin]
anticancer activity (60 cell line panel): very little anticancer activity
SD90 (parasitemia 90 percent suppressed) (P. berghei): 6.20 mg/kg
potency in vitro compared with mefloquine (P. falciparum): comparable
activity against P388 leukemia (P388 leukemia): inactive

C[C@H]1[C@@H](F)O[C@@H]2O[C@@]3(C)CC[C@H]4[C@H](C)CC[C@@H]1[C@@]24OO3 [Compound VI, 10β-Fluorodeoxoartemisinin]
IC (TGI) (NCI-H322M): > 100 µM
CC50 (SK-MEL-5; [2]): 61.7 µM
IC (TGI) (SK-MEL-5; [3]): 13.5 µM

C[C@H]1[C@@H](CC(=O)c2ccc(C(=O)C[C@H]3O[C@@H]4O[C@@]5(C)CC[C@H]6[C@H](C)CC[C@@H]([C@H]3C)[C@@]46OO5)cc2)O[C@@H]2O[C@@]3(C)CC[C@H]4[C@H](C)CC[C@@H]1[C@@]24OO3 [Dimer 21]
GI50 (SK-OV-3; [4]): 263 µM
CC50 (SK-OV-3; [2]): 52.5 µM
GI50 (OVCAR-4): 1.58 µM
GI50 (DU-145; [4]): 6.31 µM
IC (TGI) (DU-145; [3]): 31.6 µM
antiproliferative activity compared with calcitriol [1]: at least as antiproliferative as calcitrol
